What was measured:
Test in all cases: KinomeScan profiling
Assay type in all cases: binding
CDK11 = CDK11 (Homo sapiens, UniProt Q9BWU1); conditions: CDK11, 1 μM; read-out: % control
Method in brief: (§1)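 Normalised RLU (% control; DMSO 100%, positive control 0%) was measured for compounds dosed at 1 μM over 468 kinases, active cut-off <35%.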

CSNK1D = CSNK1D (Homo sapiens, UniProt P48730); conditions: read-out: % control
Method in brief: as §1

DMPK2 = DMPK2 (Homo sapiens, UniProt Q6DT37); conditions: DMPK2, 1 μM; read-out: % control
Sequence of DMPK2 (Q6DT37 whole entry): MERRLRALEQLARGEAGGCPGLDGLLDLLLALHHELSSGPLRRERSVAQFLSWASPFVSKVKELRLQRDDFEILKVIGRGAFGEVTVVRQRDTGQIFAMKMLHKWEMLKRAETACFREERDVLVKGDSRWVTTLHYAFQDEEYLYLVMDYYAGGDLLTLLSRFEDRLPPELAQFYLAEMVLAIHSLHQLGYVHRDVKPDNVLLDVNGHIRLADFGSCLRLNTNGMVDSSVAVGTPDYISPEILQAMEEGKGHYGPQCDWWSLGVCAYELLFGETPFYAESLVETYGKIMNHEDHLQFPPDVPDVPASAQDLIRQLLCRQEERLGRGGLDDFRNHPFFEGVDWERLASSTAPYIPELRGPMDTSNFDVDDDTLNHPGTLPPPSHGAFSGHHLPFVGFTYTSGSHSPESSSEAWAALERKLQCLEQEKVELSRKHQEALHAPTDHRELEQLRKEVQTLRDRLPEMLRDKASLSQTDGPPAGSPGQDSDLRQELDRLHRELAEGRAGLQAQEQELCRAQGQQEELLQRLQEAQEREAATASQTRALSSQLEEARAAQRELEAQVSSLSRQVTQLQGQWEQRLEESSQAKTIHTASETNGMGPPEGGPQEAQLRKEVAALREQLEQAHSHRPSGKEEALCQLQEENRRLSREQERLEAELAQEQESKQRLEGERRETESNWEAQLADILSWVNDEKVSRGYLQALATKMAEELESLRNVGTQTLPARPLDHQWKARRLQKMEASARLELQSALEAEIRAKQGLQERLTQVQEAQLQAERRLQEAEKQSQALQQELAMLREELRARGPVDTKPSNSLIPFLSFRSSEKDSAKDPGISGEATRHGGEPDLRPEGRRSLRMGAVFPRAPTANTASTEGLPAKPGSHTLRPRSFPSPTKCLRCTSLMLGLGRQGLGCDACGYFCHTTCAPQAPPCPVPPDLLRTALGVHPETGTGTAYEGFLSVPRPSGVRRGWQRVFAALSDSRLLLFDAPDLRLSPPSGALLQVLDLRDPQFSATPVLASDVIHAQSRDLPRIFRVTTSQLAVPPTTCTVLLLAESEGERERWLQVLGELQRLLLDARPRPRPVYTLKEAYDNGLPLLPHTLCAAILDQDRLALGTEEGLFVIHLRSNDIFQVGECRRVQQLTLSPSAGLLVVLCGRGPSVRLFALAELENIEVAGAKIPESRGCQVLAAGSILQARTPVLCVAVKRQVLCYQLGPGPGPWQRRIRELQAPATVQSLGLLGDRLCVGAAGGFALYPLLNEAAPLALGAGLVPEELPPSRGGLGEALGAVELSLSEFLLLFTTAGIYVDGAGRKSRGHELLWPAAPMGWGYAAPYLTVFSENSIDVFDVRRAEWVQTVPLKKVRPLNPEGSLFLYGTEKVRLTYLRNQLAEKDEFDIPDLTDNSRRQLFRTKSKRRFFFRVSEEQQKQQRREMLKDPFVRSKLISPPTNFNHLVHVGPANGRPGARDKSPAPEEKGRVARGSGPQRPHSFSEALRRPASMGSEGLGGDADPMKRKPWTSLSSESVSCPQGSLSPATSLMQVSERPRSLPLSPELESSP
Method in brief: as §1

EGFR(G719S) = EGFR(G719S) (Homo sapiens, UniProt P00533, G719S); conditions: read-out: % control
Sequence of EGFR(G719S) (P00533 25-1210 G719S): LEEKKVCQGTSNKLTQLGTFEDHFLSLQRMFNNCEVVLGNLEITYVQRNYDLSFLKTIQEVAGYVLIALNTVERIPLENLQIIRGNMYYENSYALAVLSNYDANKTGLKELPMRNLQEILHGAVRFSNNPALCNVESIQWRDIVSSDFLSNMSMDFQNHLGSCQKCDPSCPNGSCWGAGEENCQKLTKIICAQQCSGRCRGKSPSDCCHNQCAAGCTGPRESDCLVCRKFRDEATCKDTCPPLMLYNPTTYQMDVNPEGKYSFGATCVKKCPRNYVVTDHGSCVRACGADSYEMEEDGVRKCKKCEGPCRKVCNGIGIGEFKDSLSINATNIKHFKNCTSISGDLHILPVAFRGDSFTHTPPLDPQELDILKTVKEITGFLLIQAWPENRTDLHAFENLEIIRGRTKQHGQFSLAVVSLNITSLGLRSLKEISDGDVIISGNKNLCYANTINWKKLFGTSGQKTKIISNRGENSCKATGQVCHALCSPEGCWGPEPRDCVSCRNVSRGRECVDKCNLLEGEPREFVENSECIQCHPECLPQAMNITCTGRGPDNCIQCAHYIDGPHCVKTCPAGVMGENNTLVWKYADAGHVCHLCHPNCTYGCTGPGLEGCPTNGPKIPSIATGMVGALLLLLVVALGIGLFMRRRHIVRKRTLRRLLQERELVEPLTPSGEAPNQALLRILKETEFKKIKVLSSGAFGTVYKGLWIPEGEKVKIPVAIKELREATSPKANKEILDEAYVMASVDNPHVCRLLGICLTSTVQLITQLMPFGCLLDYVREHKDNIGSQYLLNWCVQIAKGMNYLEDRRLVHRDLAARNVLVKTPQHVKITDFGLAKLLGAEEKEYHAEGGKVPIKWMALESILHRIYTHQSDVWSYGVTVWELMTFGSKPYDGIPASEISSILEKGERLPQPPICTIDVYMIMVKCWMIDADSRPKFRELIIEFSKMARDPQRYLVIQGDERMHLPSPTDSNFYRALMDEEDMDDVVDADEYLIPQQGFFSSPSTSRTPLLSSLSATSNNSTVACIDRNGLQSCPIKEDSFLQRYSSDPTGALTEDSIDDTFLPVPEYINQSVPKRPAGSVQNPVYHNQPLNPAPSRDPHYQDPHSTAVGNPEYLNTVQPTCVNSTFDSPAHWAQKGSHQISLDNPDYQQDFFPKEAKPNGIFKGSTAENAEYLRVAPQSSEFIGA
Method in brief: as §1

MAP4K2 = target: T1, MAP4K2 (Homo sapiens, UniProt Q12851); conditions: MAP4K2, 1 μM; read-out: % control
T1 sequence (Q12851 1-820): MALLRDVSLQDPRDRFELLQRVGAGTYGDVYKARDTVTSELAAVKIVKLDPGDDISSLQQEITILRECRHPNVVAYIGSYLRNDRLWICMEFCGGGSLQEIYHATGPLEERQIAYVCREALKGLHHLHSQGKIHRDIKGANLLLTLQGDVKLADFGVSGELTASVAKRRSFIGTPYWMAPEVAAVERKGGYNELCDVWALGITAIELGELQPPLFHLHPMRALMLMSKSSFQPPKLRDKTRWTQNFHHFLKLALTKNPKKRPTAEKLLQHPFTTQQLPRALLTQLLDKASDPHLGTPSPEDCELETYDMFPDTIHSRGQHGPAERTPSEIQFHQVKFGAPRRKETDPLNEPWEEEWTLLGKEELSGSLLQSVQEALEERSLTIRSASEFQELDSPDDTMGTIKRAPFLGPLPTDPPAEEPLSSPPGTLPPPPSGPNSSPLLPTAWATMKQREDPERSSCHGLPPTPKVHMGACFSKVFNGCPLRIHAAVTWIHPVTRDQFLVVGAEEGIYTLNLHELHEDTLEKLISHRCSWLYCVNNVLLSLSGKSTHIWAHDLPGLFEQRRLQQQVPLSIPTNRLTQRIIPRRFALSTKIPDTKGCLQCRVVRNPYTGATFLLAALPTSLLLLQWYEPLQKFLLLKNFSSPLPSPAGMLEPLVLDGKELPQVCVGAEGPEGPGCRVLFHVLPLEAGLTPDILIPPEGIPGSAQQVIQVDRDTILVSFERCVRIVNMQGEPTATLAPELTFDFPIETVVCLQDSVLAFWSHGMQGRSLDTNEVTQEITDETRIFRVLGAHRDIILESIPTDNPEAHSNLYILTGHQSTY
Method in brief: as §1

NEK9 = target: T2, NEK9 (Homo sapiens, UniProt Q8TD19); conditions: NEK9, 1 μM; read-out: % control
T2 sequence (Q8TD19 1-979): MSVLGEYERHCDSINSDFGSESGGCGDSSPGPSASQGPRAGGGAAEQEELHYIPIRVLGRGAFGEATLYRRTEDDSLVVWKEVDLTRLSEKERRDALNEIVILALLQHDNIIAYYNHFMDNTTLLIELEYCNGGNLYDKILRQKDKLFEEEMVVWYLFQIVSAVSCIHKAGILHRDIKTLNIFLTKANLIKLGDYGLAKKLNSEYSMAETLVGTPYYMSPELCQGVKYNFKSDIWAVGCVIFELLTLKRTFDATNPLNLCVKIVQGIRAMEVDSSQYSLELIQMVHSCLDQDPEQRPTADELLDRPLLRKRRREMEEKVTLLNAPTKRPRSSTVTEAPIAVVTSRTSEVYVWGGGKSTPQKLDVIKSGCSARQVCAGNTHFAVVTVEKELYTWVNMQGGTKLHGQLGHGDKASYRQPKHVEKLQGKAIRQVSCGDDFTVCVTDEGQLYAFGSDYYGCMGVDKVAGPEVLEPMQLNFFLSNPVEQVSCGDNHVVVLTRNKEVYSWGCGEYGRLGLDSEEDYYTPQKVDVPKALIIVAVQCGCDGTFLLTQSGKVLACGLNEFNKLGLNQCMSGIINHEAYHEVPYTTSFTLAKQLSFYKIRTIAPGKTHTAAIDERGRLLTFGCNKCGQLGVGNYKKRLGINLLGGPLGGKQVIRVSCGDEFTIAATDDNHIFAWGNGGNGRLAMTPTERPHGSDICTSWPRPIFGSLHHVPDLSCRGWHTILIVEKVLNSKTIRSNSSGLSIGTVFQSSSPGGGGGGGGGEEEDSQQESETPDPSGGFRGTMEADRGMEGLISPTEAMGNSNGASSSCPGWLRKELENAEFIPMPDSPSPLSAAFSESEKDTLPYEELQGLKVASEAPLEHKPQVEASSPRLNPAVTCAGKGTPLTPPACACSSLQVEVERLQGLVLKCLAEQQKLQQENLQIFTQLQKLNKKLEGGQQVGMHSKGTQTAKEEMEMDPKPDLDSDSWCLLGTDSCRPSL
Method in brief: as §1

OSR1 = OSR1 (Homo sapiens, UniProt O95747); conditions: OSR1, 1 μM; read-out: % control
Sequence of OSR1 (O95747 whole entry): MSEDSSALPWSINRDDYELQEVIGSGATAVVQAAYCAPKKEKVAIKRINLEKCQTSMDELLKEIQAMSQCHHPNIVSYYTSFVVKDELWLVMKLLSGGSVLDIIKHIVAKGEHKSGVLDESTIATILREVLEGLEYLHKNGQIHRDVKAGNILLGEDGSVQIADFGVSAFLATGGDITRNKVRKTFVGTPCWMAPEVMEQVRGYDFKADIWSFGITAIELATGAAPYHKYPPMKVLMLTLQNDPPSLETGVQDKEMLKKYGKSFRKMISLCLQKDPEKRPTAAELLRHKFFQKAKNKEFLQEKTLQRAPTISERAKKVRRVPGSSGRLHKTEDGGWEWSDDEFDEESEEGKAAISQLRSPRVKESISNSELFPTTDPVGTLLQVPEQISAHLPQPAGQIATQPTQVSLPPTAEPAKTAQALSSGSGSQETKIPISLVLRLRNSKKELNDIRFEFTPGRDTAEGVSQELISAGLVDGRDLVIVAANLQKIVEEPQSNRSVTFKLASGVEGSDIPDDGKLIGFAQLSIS
Method in brief: as §1

PFTK1 = PFTK1 (Homo sapiens, UniProt O94921); conditions: PFTK1, 1 μM; read-out: % control
Sequence of PFTK1 (O94921 whole entry): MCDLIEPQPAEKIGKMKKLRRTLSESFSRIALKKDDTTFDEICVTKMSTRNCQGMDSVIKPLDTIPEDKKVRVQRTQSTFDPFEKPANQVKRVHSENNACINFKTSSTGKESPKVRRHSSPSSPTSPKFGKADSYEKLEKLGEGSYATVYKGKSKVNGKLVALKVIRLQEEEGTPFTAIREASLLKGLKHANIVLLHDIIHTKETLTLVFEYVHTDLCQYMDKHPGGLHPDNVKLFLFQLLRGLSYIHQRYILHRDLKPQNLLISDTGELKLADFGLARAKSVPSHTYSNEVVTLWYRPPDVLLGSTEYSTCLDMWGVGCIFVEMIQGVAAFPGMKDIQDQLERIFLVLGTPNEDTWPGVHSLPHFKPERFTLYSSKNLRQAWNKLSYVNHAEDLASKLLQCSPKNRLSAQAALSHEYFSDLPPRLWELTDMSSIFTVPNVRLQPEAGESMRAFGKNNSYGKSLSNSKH
Method in brief: as §1

Sequence of CDK11 (Q9BWU1 whole entry): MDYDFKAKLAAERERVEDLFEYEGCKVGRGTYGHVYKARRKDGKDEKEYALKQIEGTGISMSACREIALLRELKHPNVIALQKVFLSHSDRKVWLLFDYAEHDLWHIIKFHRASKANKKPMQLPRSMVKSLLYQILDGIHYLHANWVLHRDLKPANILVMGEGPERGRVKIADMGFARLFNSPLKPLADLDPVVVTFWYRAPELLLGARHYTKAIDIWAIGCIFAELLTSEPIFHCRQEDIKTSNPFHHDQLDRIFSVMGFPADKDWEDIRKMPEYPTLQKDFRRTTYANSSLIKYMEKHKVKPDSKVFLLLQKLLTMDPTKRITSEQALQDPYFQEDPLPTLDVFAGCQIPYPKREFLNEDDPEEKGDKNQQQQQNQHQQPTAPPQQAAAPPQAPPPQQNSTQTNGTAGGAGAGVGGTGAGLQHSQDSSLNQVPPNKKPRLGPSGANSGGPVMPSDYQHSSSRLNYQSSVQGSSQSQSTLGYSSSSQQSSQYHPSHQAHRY
Sequence of CSNK1D (P48730 whole entry): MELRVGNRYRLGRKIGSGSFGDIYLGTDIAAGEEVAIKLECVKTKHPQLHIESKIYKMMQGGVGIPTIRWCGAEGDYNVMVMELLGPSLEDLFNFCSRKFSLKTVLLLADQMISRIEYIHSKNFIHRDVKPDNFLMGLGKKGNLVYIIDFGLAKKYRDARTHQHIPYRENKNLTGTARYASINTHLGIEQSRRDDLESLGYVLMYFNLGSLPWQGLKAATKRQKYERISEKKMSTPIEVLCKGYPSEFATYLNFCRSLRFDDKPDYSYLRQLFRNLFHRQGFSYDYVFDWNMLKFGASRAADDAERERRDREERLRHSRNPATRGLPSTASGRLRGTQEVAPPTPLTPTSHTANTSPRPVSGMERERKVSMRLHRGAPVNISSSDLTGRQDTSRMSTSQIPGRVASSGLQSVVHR

CNc1c(-c2cnn([C@H]3CCN(C(C)=O)C[C@@H]3F)c2)cnc2[nH]cc(Cl)c12 [Compound 77, 1-((3S,4S)-4-(4-(3-chloro-4-(methylamino)-1H-pyrrolo[2,3-b]pyridin-5-yl)-1H-pyrazol-1-yl)-3-fluoropiperidin-1-yl)ethan-1-one]
remaining binding at 1 µM (CDK11): 96% | remaining binding at 1 µM (CSNK1D): 84% | remaining binding at 1 µM (DMPK2): 80% | remaining binding at 1 µM (EGFR(G719S)): 100% | remaining binding at 1 µM (MAP4K2): 20% | remaining binding at 1 µM (NEK9): 100% | remaining binding at 1 µM (OSR1): 75% | remaining binding at 1 µM (PFTK1): 100%

CNc1c(-c2ccc(C(=O)N3CCC(N4CCOCC4)CC3)cc2)cnc2[nH]cc(Cl)c12 [Compound 96, (4-(3-chloro-4-(methylamino)-1H-pyrrolo[2,3-b]pyridin-5-yl)phenyl)(4-morpholinopiperidin-1-yl)methanone]
remaining binding at 1 µM (CDK11): 68% | remaining binding at 1 µM (CSNK1D): 90% | remaining binding at 1 µM (DMPK2): 91% | remaining binding at 1 µM (EGFR(G719S)): 100% | remaining binding at 1 µM (MAP4K2): 1.1% | remaining binding at 1 µM (NEK9): 100% | remaining binding at 1 µM (OSR1): 66% | remaining binding at 1 µM (PFTK1): 100%

O=C(c1ccc(-c2cnc3[nH]cc(Cl)c3c2NC2CCCC2)cc1)N1CCC(N2CCOCC2)CC1 [Compound 101, (4-(3-chloro-4-(cyclopentylamino)-1H-pyrrolo[2,3-b]pyridin-5-yl)phenyl)(4-morpholinopiperidin-1-yl)methanone]
remaining binding at 1 µM (CDK11): 35% | remaining binding at 1 µM (CSNK1D): 92% | remaining binding at 1 µM (DMPK2): 100% | remaining binding at 1 µM (EGFR(G719S)): 100% | remaining binding at 1 µM (MAP4K2): 20% | remaining binding at 1 µM (NEK9): 98% | remaining binding at 1 µM (OSR1): 100% | remaining binding at 1 µM (PFTK1): 100%

Source: patent publication US12275731B2, “Azaindole inhibitors of wild-type and mutant forms of LRRK2” (DANA-FARBER CANCER INSTITUTE, INC., priority 2018, dated 2025)
